Assays:
[1] = tested on: HaCaT (human immortalized epidermal cells); experiment: MTT growth inhibition assay, HaCaT normal cells; type: cell-based; conditions: 48 h, read-out: IC50 (μM) HaCaT, MTT, 48 h, n = 3, normal cell line
Method: (§1) Target compounds 12a–t were evaluated for in vitro cytotoxicity against four human tumor cell lines, including H460 (non-small cell lung carcinoma), HeLA (human cervical carcinoma), EC9706 (human esophageal squamous cell carcinoma), and T24 (human bladder carcinoma), using HaCaT (human immortalized epidermal cells) as a human non-malignant cell line. Etoposide (3) was included as a positive control. The screening procedure was based on the 3-(4, 5-dimethylthiazol-2-yl)-2, 5-diphenyltetrazoliun bromide (MTT) growth inhibition assay with triplicate experiments, and the results are summarized in Table 1.
(§2) The four human cancer cell lines and a normal human epidermal cell line of the screening panel, including H460 (human non-small cell lung carcinoma), HeLA (human cervical carcinoma), EC9706 (human esophageal squamous cell carcinoma), T24 (human bladder carcinoma), and HaCaT (human immortalized epidermal cells), were purchased from American Type Culture Collection (ATCC, Manassas, VA, U.S.A.). H460, EC9706, and T24 were maintained in RPMI 1640 medium containing 10% Fetal Bovine Serum, 100 units/ml penicillin, 100 μg/ml streptomycin under humidified incubator with 5% CO2 atmosphere at 37°C. HeLA and HaCaT were maintained in Dulbecco′s […] (DMEM) supplemented with 10% Fetal Bovine Serum 100 units/ml penicillin, 100 μg/ml streptomycin in a humidified incubator and 5% CO2 atmosphere at 37°C. Logarithmically growing cells were used for the following experiments.
(§3) The cytotoxicity of the synthesized compounds 12a–t against a panel of human cell lines was determined by the 3-(4,5-dimethylthiazol-2-yl)-2,5-diphenyltetrazoliun bromide (MTT) growth inhibition assay. The five human cell lines were, respectively, plated in 96-well-culture plates at the density of 1 × 10^5 cells per well and incubated for 24 h. Cells were exposed to different concentrations of synthetic podophyllotoxin derivatives for 48 h. MTT was added with a dose of 5 mg/mL in phosphate-buffered saline. After incubation for 4 h at 37°C, the purple formazan crystals were dissolved with […] dimethyl sulfoxide and the absorbance was measured at 570 nm in an ELISA reader. Antiproliferative activity was expressed using the IC50 value defined as the concentration of synthetic podophyllotoxin derivatives inhibiting cell proliferation by 50%. The cell viability ratio was calculated by the following formula: cell viability ratio (%) = OD treated /OD control × 100% (Ma et al., [2014]).

HeLA cells [2] = experiment: Hoechst 33258 staining, HeLA; type: cell-based, human; conditions: 0.75/1.5/3.0 μM, 24 h, vs vehicle 0.1% DMSO
Method: (§4) Apoptosis is one of the major pathways leading to the process of cell death. Visualization of chromatin condensation as well as nuclear shrinking and fragmentation—known as classic characteristics of apoptosis—was carried out in the presence of a representative compound 12g by staining T24 and HeLA cells with Hoechst 33258, by which apoptosis was confirmed as the cause of reduced cell viability.
(§5) T24 and HeLA cells were seeded at a density of 3 × 10^4 cells per well and cultured in 6 well-plates on a cover slip for 24 h at 37°C. Compound 12g treated T24 and HeLA cancer cells for 24 h at 37°C with concentrations of 0.5/1.0/2.0 and 0.75/1.5/3.0 μM, respectively. Afterward, the treated cells were fixed with 4% paraformaldehyde (PFA) for 30 min and stained with 5 μg/mL Hoechst 33258 (bis-benzimide; KeyGEN Bio TECH, China) for 30 min. Nuclei were stained with Hoechst 33258 to examine chromatin condensation or nuclear fragmentation, morphological characteristics of apoptosis. After the cells were washed twice with PBS, the cover slip was inverted and placed on a glass slide and mounted. Apoptotic cells with fluorescence of the soluble DNA fragments were detected directly and photographed under a phase contrast microscope (OLYMPUS IX51, Japan) in a Varian Fluorometer at an excitation wavelength of 365 nm and emission wavelength of 460 nm (Shareef et al., [2015]).

T24 cells [3] = experiment: Hoechst 33258 staining, T24; type: cell-based, human; conditions: T24, 0.5/1.0/2.0 μM, 24 h, vs vehicle 0.1% DMSO
Method: as §4, §5

HeLA cells [4] = experiment: Cell cycle distribution analysis (FACS, propidium iodide), HeLA; type: cell-based, human; conditions: 24 h
Method: (§6) Flow cytometry analysis was carried out to evaluate cell cycle changes and gain further insight into the mode of action with respect to the anti-proliferative effect of compound 12g. HeLA and T24 cancer cells were treated with the selected compound 12g for […] at three different gradient concentrations. The cell cycle accumulation was examined by the propidium iodide staining and cytometric quantification after the cancer cells were cultured for 24 h.
(§7) To understand the cell cycle effect of the synthesized analogs, cell cycle distribution analysis was performed by FACS (Becton Dickinson, San Jose, CA, USA). T24 and HeLA cells were treated with compound 12g for 24 h at 37°C with concentrations of 0.5/1.0/2.0 and 0.75/1.5/3.0 μM, respectively. After treatment, the cells were washed once with PBS and fixed with 70% ice-cold ethanol at […] for overnight. Ethanol was removed by Centrifugation. The cells were stained with a solution containing 0.1% Triton-X 100 (Sigma), 0.2 mg/mL RNase (Sigma), and […] propidium iodide (PI, Sigma) in the dark for 30 min at room temperature. Then, cell cycle distribution was analyzed by using a FACS can flow cytometer (Chen et al., [2013]).

[5] = tested on: HeLA (human cervical carcinoma); experiment: MTT growth inhibition assay, HeLA; type: cell-based; conditions: Homo sapiens, 48 h, read-out: IC50 (μM) HeLA, MTT, 48 h, n = 3
Method: as §1, §2, §3

[6] = tested on: EC9706 (human esophageal squamous cell carcinoma); experiment: MTT growth inhibition assay, EC9706; type: cell-based; conditions: EC9706, 48 h, read-out: IC50 (μM) EC9706
Method: as §1, §2, §3

[7] = tested on: H460 (human non-small cell lung carcinoma); experiment: MTT growth inhibition assay, H460; type: cell-based; conditions: NCI-H460, 48 h, read-out: IC50 (μM) H460
Method: as §1, §2, §3

T24 cells [8] = experiment: Cell cycle distribution analysis (FACS, propidium iodide), T24; type: cell-based, human
Method: as §6
as §7, with “T24 and HeLA cells were treated with compound 12g for 24 h at 37°C with concentrations of 0.5/1.0/2.0 and 0.75/1.5/3.0 μM, respectively.” left out

[9] = tested on: T24 (human bladder carcinoma); experiment: MTT growth inhibition assay, T24; type: cell-based; conditions: T24, 48 h, read-out: IC50 (μM) T24, MTT, 48 h, n = 3
Method: as §1, §2, §3

CCCN(CCC)CC(=O)NC1c2cc3c(cc2C(c2cc(OC)c(O)c(OC)c2)C2C(=O)OCC12)OCO3 (stereo not shown) [Compound 12g]
IC50 [1]: > 50 µM
apoptotic morphology (Hoechst 33258 staining) (HeLA cells [2]): markedly increased chromatin condensation, nuclear fragmentation and morphological changes
apoptotic morphology (Hoechst 33258 staining) (T24 cells [3]): markedly increased chromatin condensation, nuclear fragmentation and morphological changes
Cell cycle phase (%) G2/M (HeLA cells [4]; 0.75 uM): 79.69%
Cell cycle phase (%) G2/M (HeLA cells [4]; 1.5 uM): 89.18%
Cell cycle phase (%) G2/M (HeLA cells [4]; 3 uM): 90.66%
IC50 [5]: 2.34 ± 0.39 µM
IC50 [6]: > 50 µM
IC50 [7]: 24.2 ± 0.77 µM
accumulation of T24 cells at G2/M phase (T24 cells [8]; T24, 0.75 μM as printed in text): 65.15%
accumulation of T24 cells at G2/M phase (T24 cells [8]; T24, 1.5 μM as printed in text): 62.76%
accumulation of T24 cells at G2/M phase (T24 cells [8]; T24, 3.0 μM as printed in text): 79.87%
IC50 [9]: 2.98 ± 0.26 µM
